According to PMC6207642, “Real Time Monitoring of NADPH Concentrations in Corynebacterium glutamicum and Escherichia coli via the Genetically Encoded Sensor mBFP” (Frontiers in Microbiology, 2018):
pKd: −log10 of the molar value.

How the values were obtained:
mBFP [1] = system: T1, mBFP; assay: photometric benzaldehyde reductase assay, Michaelis-Menten fit; format: biochemical, uncultured bacterium; conditions: phosphate buffer pH 8, 30 °C
T1 construct: no tag mentioned; codon-optimized gene (amplicon 780 bp) used only in cells

mBFP [2] = target: T1, mBFP; assay: thermal shift (SYPRO Orange), concentration dependence; format: binding, uncultured bacterium; conditions: NADPH 0-10 mM; 40 to 70 °C in 0.5 °C steps

Km (mBFP [1]; 12.5 mM benzaldehyde, NADPH 0.5-180 μM)	pKd (mBFP [2])	Structure (SMILES)	Km (mBFP [1]; 200 μM NADPH, benzaldehyde 0.5-12.5 mM)
41 µM	3.19	NC(=O)C1=CN([C@@H]2O[C@H](COP(=O)(O)OP(=O)(O)OC[C@H]3O[C@@H](n4cnc5c(N)ncnc54)[C@H](OP(=O)(O)O)[C@@H]3O)[C@@H](O)[C@H]2O)C=CC1 [NADPH]	–
–	–	O=Cc1ccccc1 [benzaldehyde]	3100 µM
